Measured values from ChEMBL document CHEMBL3046794, “Synthesis and blood glucose lowering activity of some novel benzenesulfonylurea derivatives substituted with 6-aryl-4,5-dihyropyridazin-3(2H)-ones” (2012).
The source made the active and inactive calls. No cut-off for these calls is given here.

Tests used:
Rattus norvegicus [1] = test: Antidiabetic activity in Rattus norvegicus albino (rat) assessed as inhibition in rise of blood glucose level at 20 mg/kg, po administered 30 min prior to glucose challenge measured post 60 min of challenge by oral glucose tolerance test relative to control; type: functional
Rattus norvegicus [2] = test: Antidiabetic activity in overnight fastedRattus norvegicus albino (rat) assessed as reduction in blood glucose level at 20 mg/kg, po measured after 60 min by oral glucose tolerance test relative to control (reference value: 78.0 +/- 1.167 mg/dl); type: functional

SMILES	inhibition (Rattus norvegicus [1])	Activity (Rattus norvegicus [2]) [mg/dL]	inhibition in vivo at 20 mg/kg (Rattus norvegicus [1]) [%]
O=C(NCc1ccccc1)NS(=O)(=O)c1ccc(N2N=C(c3ccc(Oc4ccccc4)cc3)CCC2=O)cc1	inactive		
CCc1ccc(C2=NN(c3ccc(S(=O)(=O)NC(=O)NCc4ccccc4)cc3)C(=O)CC2)cc1		62	86.9
COc1ccc(C2=NN(c3ccc(S(=O)(=O)NC(=O)NCc4ccccc4)cc3)C(=O)CC2)cc1			41.4
Cc1ccc(S(=O)(=O)NC(=O)NN2CC3CCCC3C2)cc1 (stereo not drawn) [GLICLAZIDE]		58.2	61.4
Cc1ccc(C2=NN(c3ccc(S(=O)(=O)NC(=O)NCc4ccccc4)cc3)C(=O)CC2)c(C)c1			6.5
Cc1ccc(C2=NN(c3ccc(S(=O)(=O)NC(=O)NCc4ccccc4)cc3)C(=O)CC2)cc1	inactive		
